Tests used:
human B-Raf V600E = biological target: T1, human B-Raf V600E (Homo sapiens, UniProt P15056, V600E); experiment: Enzymatic assay of B-Raf V600E kinase activity (Raf/MEK1 ATPase, coupled PK/LDH, A340); type: biochemical; details: read-out: Enzyme IC50, nM B-Raf V600E
T1 construct: B-RafV600E (residues 433-726 containing V600E mutation) containing an N-terminal purification tag is expressed and purified; made in house
Experimental: (§1) Test compounds are evaluated for their inhibitory activities against one or more of human wild type B-Raf, human wild type C-Raf, human B-Raf V600E, human B-Raf V600E+T529I or human B-Raf V600E+G468A. T529I is a threonine to isoleucine B-Raf gatekeeper mutation and G468A is a B-Raf secondary mutation at G1403C in exon 11. The enzymatic assays of B-Raf, C-Raf and B-Raf mutations evaluate a property of Raf and MEK1 complex, which in the presence of ATP, catalyzes an enhanced ATP hydrolysis (Rominger, et al, Arch. Biochem. Biophys. 2007, 464: 130-137; US Patent Publication No. 2006/0211073). The ADP formed is monitored by the well-known coupled PK/LDH (pyruvate kinase/lactate dehydrogenase) system in the form of NADH oxidation, which can be monitored and detected spectrophotometrically by absorbance at 340 nm (A340; for principal of the method see Schindler et al, Science, 2000, 289: 1938-1942). Raf activated MEK1 ATPase activity is a property shared by all forms of Raf proteins.
B-RafV600E (residues 433-726 containing V600E mutation) containing an N-terminal purification tag is expressed and purified essentially as described previously (Wan et al, Cell, 2004, 116, 855-867).
(§2) Test compounds are evaluated for their inhibitory activities against one or more of wild type B-Raf, wild type C-Raf, B-Raf V600E, B-Raf V600E+T529I and B-Raf V600E+G468A. T529I is a B-Raf gatekeeper mutation and G468A is a B-Raf secondary mutation. The enzymatic assays of B-Raf, C-Raf and B-Raf mutations evaluate a property of Raf and MEK1 complex, which in the presence of ATP, catalyzes an enhanced ATP hydrolysis (Rominger, et al, Arch. Biochem. Biophys. 2007, 464: 130-137). The ADP formed is monitored by the well-known coupled PK/LDH (pyruvate kinase/lactate dehydrogenase) system in the form of NADH oxidation, which can be monitored and detected by absorbance at 340 nm (A340; for principal of the method see Schindler et al, Science, 2000, 289: 1938-1942). Raf activated MEK1 ATPase activity is a property shared by all forms of Raf proteins. In the B-Raf wild type enzymatic assay, the reaction mixture contains 1.2 nM B-Raf, 30 nM MEK1, 1000 uM ATP, 3.5 units (per 100 ul) of PK, 5 units (per 100 ul) of LDH, 1 mM phosphoenol pyruvate (PEP), and 280 uM of NADH. In the C-Raf assay, the reaction mixture contains 0.6 nM C-Raf, 26 nM MEK1, 2000 uM ATP, and the same amount of PK, LDH, PEP and NADH as above. In the B-Raf V600E assay, the reaction mixture contains […] B-Raf V600E, 26 nM MEK1, 200 uM ATP and the same amount of PK, LDH, PEP and NADH as above. In the B-RafV600E+T529I assay, the reaction mixture contains 6.2 nM B-Raf V600E+T529I, 30 nM MEK1, 200 uM ATP and the same amount of PK, LDH, PEP and NADH as above. In the B-Raf V600E+G468A assay, the reaction mixture contains 3.5 nM B-Raf, 30 nM MEK1, 200 uM ATP and the same amount of PK, LDH, PEP and NADH as above. All assays are started by mixing the above mixture with test compound and monitoring at A340 continuously for approximately 5 hr. […] In the aforementioned assays, the enzyme constructs can be screened prior to or after cleavage of the N-terminal purification tag.

human wild type C-Raf = biological target: T2, human wild type C-Raf (Homo sapiens, UniProt P04049); experiment: Enzymatic assay of C-Raf kinase activity (Raf/MEK1 ATPase, coupled PK/LDH, A340); type: biochemical; details: read-out: Enzyme IC50, nM C-Raf
T2 construct: made in house
T2 sequence (P04049 whole entry): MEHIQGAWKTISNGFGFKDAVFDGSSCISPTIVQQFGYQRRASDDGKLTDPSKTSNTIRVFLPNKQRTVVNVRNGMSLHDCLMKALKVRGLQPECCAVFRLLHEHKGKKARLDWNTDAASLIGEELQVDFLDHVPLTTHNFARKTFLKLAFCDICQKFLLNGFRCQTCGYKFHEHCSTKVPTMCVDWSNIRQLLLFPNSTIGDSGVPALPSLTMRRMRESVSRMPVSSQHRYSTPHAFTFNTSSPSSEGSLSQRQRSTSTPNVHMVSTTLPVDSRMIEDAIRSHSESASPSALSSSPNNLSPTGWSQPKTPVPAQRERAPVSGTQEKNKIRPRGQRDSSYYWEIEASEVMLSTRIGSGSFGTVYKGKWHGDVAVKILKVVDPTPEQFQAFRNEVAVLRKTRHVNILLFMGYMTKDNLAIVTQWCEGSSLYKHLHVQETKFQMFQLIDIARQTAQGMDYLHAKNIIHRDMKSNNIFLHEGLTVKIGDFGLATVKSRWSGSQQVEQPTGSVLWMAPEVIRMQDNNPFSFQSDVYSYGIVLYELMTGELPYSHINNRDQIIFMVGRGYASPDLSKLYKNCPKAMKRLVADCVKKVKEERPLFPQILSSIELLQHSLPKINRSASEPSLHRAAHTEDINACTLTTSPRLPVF
Experimental: as §1, §2

human wild type c-KIT = biological target: T3, human wild type c-KIT (Homo sapiens, UniProt P10721); experiment: Enzymatic assay of c-Kit kinase activity (poly E4Y phosphorylation, coupled PK/LDH); type: biochemical
T3 construct: GST (N); made in house
T3 sequence (P10721 26-976): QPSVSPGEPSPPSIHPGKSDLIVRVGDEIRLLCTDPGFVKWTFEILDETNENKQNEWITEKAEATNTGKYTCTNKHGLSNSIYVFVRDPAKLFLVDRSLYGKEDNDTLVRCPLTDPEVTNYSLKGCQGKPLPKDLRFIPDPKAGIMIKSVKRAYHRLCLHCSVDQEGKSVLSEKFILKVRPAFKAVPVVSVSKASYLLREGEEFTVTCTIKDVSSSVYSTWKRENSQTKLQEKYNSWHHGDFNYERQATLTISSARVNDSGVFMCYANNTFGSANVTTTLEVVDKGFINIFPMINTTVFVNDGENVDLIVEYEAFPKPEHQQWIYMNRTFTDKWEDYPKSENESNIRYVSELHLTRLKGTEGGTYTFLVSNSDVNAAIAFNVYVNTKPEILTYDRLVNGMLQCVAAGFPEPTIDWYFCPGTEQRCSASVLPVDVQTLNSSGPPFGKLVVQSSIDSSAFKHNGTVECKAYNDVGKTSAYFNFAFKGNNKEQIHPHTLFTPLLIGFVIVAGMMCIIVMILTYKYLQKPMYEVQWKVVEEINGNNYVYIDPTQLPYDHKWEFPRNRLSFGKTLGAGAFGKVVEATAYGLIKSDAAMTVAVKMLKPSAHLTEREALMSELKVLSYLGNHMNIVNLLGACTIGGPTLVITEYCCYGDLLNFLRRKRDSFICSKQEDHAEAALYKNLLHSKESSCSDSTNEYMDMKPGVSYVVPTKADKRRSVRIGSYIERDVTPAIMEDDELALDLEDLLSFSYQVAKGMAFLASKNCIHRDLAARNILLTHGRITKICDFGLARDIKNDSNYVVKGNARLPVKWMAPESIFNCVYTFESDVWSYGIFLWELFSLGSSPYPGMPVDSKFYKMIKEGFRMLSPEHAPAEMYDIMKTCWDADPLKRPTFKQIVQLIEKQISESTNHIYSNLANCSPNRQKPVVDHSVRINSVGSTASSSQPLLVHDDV
From the text: c-Kit is an important oncogene, and its overexpression and genetic mutations often occur in melanoma and gastrointestinal stromal tumor (GIST) patients. In the c-Kit enzymatic assay, the phosphorylation of poly E4Y by ATP catalyzed by human c-Kit is monitored spectrophotometrically. The ADP produced from the kinase reaction is coupled to pyruvate kinase/lactate dehydrogenase (PK/LDH) reactions where NAD is formed from pyruvate and NADH. NADH can be detected by absorbance at 340 nm, as described above for enzymatic assays of kinase activities of B-Raf, C-Raf and B-Raf mutations.
The assay reaction mixture includes 6 nM human wild type c-KIT, 1 mg/mL Poly (Glu,Tyr) (Sigma), 1 mM Phosphoenol-pyruvate, 280 μM NADH, 5 U/3.5 U (per 100 ul) Pyruvate Kinase/Lactate Dehydrogenase, 85 mM Tris, pH 7.5, 17 mM MgCl2, 0.0042% Triton® X-100, 0.005% BSA, 1% DMSO. Test compound is incubated with the reaction mixture for 0.5 hour before adding 200 μM ATP to start the reaction at 30° C.

HT-29 cells = experiment: HT-29 cell proliferation assay (resazurin); type: cell-based; details: Homo sapiens, V600E mutation, read-out: Cell Proliferation Inhibition IC50, nM HT-29
Experimental: HT-29 cells (catalog #HTB-38) are obtained from the American Type Culture Collection (ATCC, Manassas, Va.). Briefly, cells are grown in McCoy's 5A supplemented with 10% characterized fetal bovine serum (Invitrogen, Carlsbad, Calif.), and 1% Penicillin/Streptomycin/L-Glutamine at 37 degrees Celsius, 5% CO2, and 95% humidity. Cells are allowed to expand until reaching 75-90% confluency at which point they are subcultured or harvested for assay use. A serial dilution of test compound is dispensed into a 384-well black clear bottom plate in triplicate. One thousand two-hundred fifty cells are added per well in 50 μL complete growth medium in the 384-well plate. Plates are incubated for 67 hours at 37 degrees Celsius, 5% CO2, and 95% humidity. At the end of the incubation period, 10 μL of a 440 μM solution of resazurin (Sigma, St. Louis, Mo.) in PBS is added to each well of the plate and plates are incubated for an additional 5 hours at 37 degrees Celsius, 5% CO2, and 95% humidity. Plates are read on a Synergy2 reader (Biotek, Winooski, Vt.) using an excitation of 540 nm and an emission of 600 nm. Data is analyzed using Prism software (Graphpad, San Diego, Calif.) to calculate IC50 values.
The A375, HT-29, and Colo-205 cells (ATCC) harbor a V600E mutation.

T1 sequence (P15056 433-726 V600E): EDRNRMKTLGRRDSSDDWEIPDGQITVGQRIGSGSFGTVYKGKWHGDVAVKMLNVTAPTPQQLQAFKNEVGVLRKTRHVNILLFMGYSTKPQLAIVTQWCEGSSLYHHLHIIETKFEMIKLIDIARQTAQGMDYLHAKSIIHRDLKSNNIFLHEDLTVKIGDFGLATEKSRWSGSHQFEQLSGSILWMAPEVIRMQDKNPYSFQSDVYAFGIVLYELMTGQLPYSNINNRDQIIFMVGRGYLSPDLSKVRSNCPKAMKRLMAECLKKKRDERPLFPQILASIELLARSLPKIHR

Row | IC50 (human B-Raf V600E) | IC50 (human wild type C-Raf) | IC50 (human wild type c-KIT) | IC50 (HT-29 cells) | SMILES
1 | < 150 nM | < 150 nM | < 150 nM | < 100 nM | CNc1ncc2cc(-c3cc(NC(=O)NCCC(C)(C)C)c(F)cc3F)c(C)nc2n1 [Example 1, 1-(2,4-Difluoro-5-(7-methyl-2-(methylamino)pyrido[2,3-d]pyrimidin-6-yl)phenyl)-3-(3,3-dimethylbutyl)urea]
2 | < 150 nM | < 150 nM | < 150 nM | < 100 nM | CNc1ncc2cc(-c3ccc(F)c(NC(=O)NCCC(C)(C)C)c3)c(C)nc2n1 [Example 2, 1-(3,3-Dimethylbutyl)-3-(2-fluoro-5-(7-methyl-2-(methylamino)pyrido[2,3-d]pyrimidin-6-yl)phenyl)urea]
3 | < 150 nM | < 150 nM | < 150 nM | < 100 nM | CNc1ncc2cc(-c3cc(NC(=O)NCCC(C)(C)C#N)c(F)cc3C)c(C)nc2n1 [Example 3, 1-(3-Cyano-3-methylbutyl)-3-(2-fluoro-4-methyl-5-(7-methyl-2-(methylamino)pyrido[2,3-d]pyrimidin-6-yl)phenyl)urea]
4 | < 150 nM | < 150 nM | < 150 nM | < 100 nM | CNc1ncc2cc(-c3cc(NC(=O)NCCC(C)(C)F)c(F)cc3C)c(C)nc2n1 [Example 4, 1-(3-Fluoro-3-methylbutyl)-3-(2-fluoro-4-methyl-5-(7-methyl-2-(methylamino)pyrido[2,3-d]pyrimidin-6-yl)phenyl)urea]
5 | < 150 nM | < 150 nM | < 150 nM | < 100 nM | COCCNc1ncc2cc(-c3cc(NC(=O)NCCC(C)(C)C)c(F)cc3C)c(C)nc2n1 [Example 5, 1-(3,3-Dimethylbutyl)-3-(2-fluoro-5-(2-((2-methoxyethyl)amino)-7-methylpyrido[2,3-d]pyrimidin-6-yl)-4-methylphenyl)urea]
6 | < 150 nM | < 150 nM | < 150 nM | < 100 nM | CNc1ncc2cc(-c3cc(NC(=O)NC4CC(C)(C)C4)c(F)cc3C)c(C)nc2n1 [Example 6, 1-(3,3-Dimethylcyclobutyl)-3-(2-fluoro-4-methyl-5-(7-methyl-2-(methylamino)pyrido[2,3-d]pyrimidin-6-yl)phenyl)urea]
7 | < 150 nM | < 150 nM | < 150 nM | < 100 nM | CNc1ncc2cc(-c3cc(NC(=O)NC4CC(C)(C)C4)c(F)cc3F)c(C)nc2n1 [Example 7, 1-(2,4-Difluoro-5-(7-methyl-2-(methylamino)pyrido[2,3-d]pyrimidin-6-yl)phenyl)-3-(3,3-dimethylcyclobutyl)urea]
8 | < 150 nM | < 150 nM | < 150 nM | 100 to 1000 nM | CNc1ncc2cc(-c3cc(NC(=O)NCC(O)C(C)(C)C)c(F)cc3C)cnc2n1 (centres unmarked) [Example 8, 1-[2-Fluoro-4-methyl-5-(2-methylaminopyrido[2,3-d]pyrimidin-6-yl)phenyl]-3-(2-hydroxy-3,3-dimethyl-butyl)urea]
9 | < 150 nM | < 150 nM | < 150 nM | 100 to 1000 nM | CNc1ncc2cc(-c3cc(NC(=O)NCC4CC4(C)C)c(F)cc3C)cnc2n1 (centres unmarked) [Example 9]
10 | < 150 nM | < 150 nM | < 150 nM | 100 to 1000 nM | Cc1cc(F)c(NC(=O)NCC(O)C(C)(C)C)cc1-c1cc2cnc(N)nc2nc1C (centres unmarked) [Example 10]
11 | < 150 nM | < 150 nM | < 150 nM | 100 to 1000 nM | CNc1ncc2cc(-c3cc(NC(=O)NCC(O)C(C)(C)C)c(F)cc3F)c(C)nc2n1 (centres unmarked) [Example 11, 1-[2,4-Difluoro-5-(7-methyl-2-methylamino-pyrido[2,3-d]pyrimidin-6-yl)phenyl]-3-(2-hydroxy-3,3-dimethyl-butyl)urea]
12 | < 150 nM | < 150 nM | < 150 nM | 100 to 1000 nM | CNc1ncc2cc(-c3cc(NC(=O)NCCC(C)(C)C#N)c(F)cc3F)c(C)nc2n1 [Example 12, 1-(3-Cyano-3-methylbutyl)-3-(2,4-difluoro-5-(7-methyl-2-(methylamino)pyrido[2,3-d]pyrimidin-6-yl)phenyl)urea]
13 | < 150 nM | < 150 nM | < 150 nM | 100 to 1000 nM | CNc1ncc2cc(-c3ccc(F)c(NC(=O)NCCC(C)(C)C#N)c3)c(C)nc2n1 [Example 13, 1-(3-Cyano-3-methylbutyl)-3-(2-fluoro-5-(7-methyl-2-(methylamino)pyrido[2,3-d]pyrimidin-6-yl)phenyl)urea]
14 | < 150 nM | < 150 nM | < 150 nM | < 100 nM | CNc1ncc2cc(-c3cc(NC(=O)NCCC(C)(C)OC)c(F)cc3C)c(C)nc2n1 [Example 14, 1-(2-Fluoro-4-methyl-5-(7-methyl-2-(methylamino)pyrido[2,3-d]pyrimidin-6-yl)phenyl)-3-(3-methoxy-3-methylbutyl)urea]
15 | < 150 nM | < 150 nM | – | < 100 nM | CNc1ncc2cc(-c3cc(NC(=O)NC[C@H](O)C(C)(C)C)c(F)cc3C)cnc2n1 [Example 18, 1-[2-Fluoro-4-methyl-5-(2-methylaminopyrido[2,3-d]pyrimidin-6-yl)phenyl]-3-[(2R)-2-hydroxy-3,3-dimethyl-butyl]urea]
16 | < 150 nM | < 150 nM | – | 100 to 1000 nM | CNc1ncc2cc(-c3cc(NC(=O)NC[C@@H](O)C(C)(C)C)c(F)cc3C)cnc2n1 [Example 19, 1-[2-fluoro-4-methyl-5-(2-methylaminopyrido[2,3-d]pyrimidin-6-yl)phenyl]-3-[(2S)-2-hydroxy-3,3-dimethyl-butyl]urea]
